Experimental data taken from US10463656B2, “Methods and compositions for prevention of feedlot bovine respiratory disease” (Iowa State University Research Foundation, Inc., priority 2017, dated 2019).
Entries after “also recorded” stand apart in the source; their conditions may differ.

Key:
[1] = biological target: T1, Bovine PAFR (Bos taurus, UniProt Q9TTY5); test: PAF-mediated intracellular calcium accumulation in BHK cells transiently expressing bovine PAFR; assay type: cell-based; conditions: 10 nM PAF, transfected BHK cells; for block of bovine PAFR function by antihistamines, PAF-mediated intracellular calcium accumulation (FIG. 12): antihistamine 1-100 nM; for block of bovine PAFR function, PAF-mediated intracellular calcium accumulation (FIG. 11): antagonist 1-100 nM
T1 construct: expressed in transfected cells; host or cells: BHK cells, transient transfection with lipofectamine, pcDNA3.3-PAFR
T1 sequence (Q9TTY5 whole entry): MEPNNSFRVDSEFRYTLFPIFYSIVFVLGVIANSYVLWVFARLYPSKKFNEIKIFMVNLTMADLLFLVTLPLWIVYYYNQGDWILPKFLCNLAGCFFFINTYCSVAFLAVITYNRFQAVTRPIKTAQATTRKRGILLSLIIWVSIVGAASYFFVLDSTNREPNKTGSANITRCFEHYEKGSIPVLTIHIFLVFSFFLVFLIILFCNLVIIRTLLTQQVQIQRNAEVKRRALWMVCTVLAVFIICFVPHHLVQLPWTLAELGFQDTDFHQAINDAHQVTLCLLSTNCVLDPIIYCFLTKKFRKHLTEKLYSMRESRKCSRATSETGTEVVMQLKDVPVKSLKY

[2] = biological target: T2, Bovine H1 histamine receptor (Bos taurus, UniProt P30546); test: Histamine-mediated intracellular calcium accumulation in BHK cells transiently expressing bovine H1 histamine receptor; assay type: cell-based; conditions: 10 nM histamine; transfected BHK cells
T2 construct: expressed in transfected cells; host or cells: BHK cells, transient transfection with lipofectamine, pcDNA3.3
T2 sequence (P30546 whole entry): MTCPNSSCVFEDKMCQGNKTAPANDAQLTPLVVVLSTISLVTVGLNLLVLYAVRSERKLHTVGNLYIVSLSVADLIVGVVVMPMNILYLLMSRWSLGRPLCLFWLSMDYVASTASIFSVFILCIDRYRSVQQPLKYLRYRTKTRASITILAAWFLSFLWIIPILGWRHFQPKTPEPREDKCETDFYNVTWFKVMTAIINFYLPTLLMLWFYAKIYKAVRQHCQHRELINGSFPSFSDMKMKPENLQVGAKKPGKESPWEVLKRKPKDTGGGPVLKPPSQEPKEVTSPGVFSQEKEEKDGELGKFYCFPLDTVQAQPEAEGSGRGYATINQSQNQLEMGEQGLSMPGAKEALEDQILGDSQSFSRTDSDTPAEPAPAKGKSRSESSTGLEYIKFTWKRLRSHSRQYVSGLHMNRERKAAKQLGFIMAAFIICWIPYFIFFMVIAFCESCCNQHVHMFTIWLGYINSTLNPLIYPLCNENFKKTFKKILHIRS
Description: Bovine H1 histamine receptor was cloned into pcDNA3.3 expression vector and transiently expressed in BHK tissue culture cells using lipofectamine as per Carlson et al. Ten nM histamine was then added to the cells in the presence of various concentrations of rupatadine, tripelennamine, lexipafant, or WEB2086. Intracellular calcium accumulation was monitored in the transfected cells using a commercially available kit (Abcam, Cambridge, Mass.). IC50 values were then determined by identifying the concentration of the antagonist that reduced the maximal PAF-mediated intracellular calcium accumulation by 50%. […] Therefore, as showing in Examples 11 and 12, rupatadine is the only antihistamine that can also block the function of PAFR.

[3] = tested on: BRD; test: BRD prevention in high-risk calves, weekly injections (Example 13); assay type: in vivo; conditions: after five weeks of weekly subcutaneous 7 mg/kg; BRD(+) calves usually >25%
Description: Twenty-five high-risk BRD calves were transported to a new barn and five each were assigned to different treatment groups: no treatment, weekly subcutaneous injections of 7 mg/kg of rupatadine, weekly injections of 1 mg/kg tripelennamine, weekly injections of 10 mg/kg WEB2086, and weekly injections of 1 mg/kg tripelennamine and 10 mg/kg WEB2086. The animals were observed over the next five weeks twice daily for BRD. Any animal who required antibiotics for treating the clinical signs of BRD was classified as having BRD. […] Four of the five (80%, n=4 of 5) animals receiving tripelennamine only developed BRD.
After the five weeks, the rupatadine treated animals were euthanized and the lungs removed and necropsied. Three veterinarians then assessed the lungs for signs of disease, such as abscessation or consolidation. […] Lung pathology in BRD(+) calves is usually >25%, and of the rupatadine treated animals, there was only about 5-10% disease identified by the veterinarians.

[4] = Pharmacotherapeutic study, blood levels after oral administration to feedlot calves; assay type: in vivo; conditions: daily oral doses of 30 mg/animal for 5 days; six calves
Description: A pharmacotherapeutic study was completed to confirm the PAFRi survives the rumen and reaches therapeutic blood and lung concentrations following oral administration to feedlot calves. Six calves were purchased and given daily oral doses of 30 mg/animal of the drug rupatadine for 5 days. Blood was drawn five times on day one and twice per day thereafter to measure the blood levels of rupatadine.

[5] = tested on: PAFR; test: PAFR level in blood of treated calves by qRT-PCR (Example 14); assay type: in vivo; conditions: weekly depot injection versus control and other rupatadine treatments
Description: Blood was extracted from all 25 calves was extracted weekly and the level of PAFR was assayed using qRT-PCR and the theoretical copies of transcript/200 ng of total RNA. […] However, it dropped the most in the weekly depot injection calves during the last three weeks of observations.

[6] = biological target: T3, PAFR (Bos taurus, UniProt Q9TTY5); test: Stress hormone- and commensal oral bacteria-mediated second messenger accumulation in calf blood cells; assay type: cell-based, cattle; conditions: 500 nM inhibitor, blood of animals with increased PAFR expression, cortisol 5 ng/mL, norepinephrine 100 pg/mL, 10^6 CFUs/mL bacteria, six hours 37°C
T3 construct: endogenous in cells; host or cells: whole blood cells of cattle (ex vivo)
T3 sequence (Q9TTY5 whole entry): as the sequence (Q9TTY5 whole entry) above
Description: A PAFR inhibitor blocks the stress hormone- and commensal oral bacteria-mediated second messenger accumulation in calf blood cells that have an increase in expression of PAFR. Studies presented in Example 1 and FIG. 1 were repeated with the inclusion of the compositions comprising the anti-inflammatory drug rupatadine according to the invention. Blood was drawn from 10 animals that have an increase in PAFR expression (those in which an RT-PCR amplicon was visible after 10-15 cycles) and 10 animals with “normal” or no PAFR expression (those in which an RT-PCR amplicon was visible after 30-45 cycles).
Approximately 5 mL of whole blood was collected from the jugular or caudal vein of non-transported juvenile and adult cattle. Blood was placed in EDTA tubes, aliquoted, and cortisol (5 ng/mL) and norepinephrine (100 pg/mL) were added to some of the blood. The next day, blood samples were incubated with 0 or 10^6 CFUs/mL of commensal oral bacteria, 0 or 500 nM of the inhibitor, and a second messenger reagent for six hours at 37° C. with gentle rolling. After the six-hour incubation period, blood samples were analyzed for the production of second messengers. Data was standardized based on second messenger production in the presence of vehicle. […] Fifty ng of total RNA was then subjected to semi-quantitative RT-PCR to confirm the PAFR expression status of each animal.

[7] = tested on: BRD; test: BRD prevention in high-risk calves, treatment methods of rupatadine (Example 14); assay type: in vivo
Description: In order to test various treatment methods of rupatadine, 25 high-risk calves were transported to a new farm. Seven calves were used as controls, six were given rupatadine as a single oral dose of 1 mg/kg, six were given rupatadine as a single subcutaneous injection of 7 mg/kg, six calves were given weekly subcutaneous injections of 7 mg/kg rupatadine. The animals were observed over the next five weeks twice daily for BRD. Any animal who required antibiotics for treating the clinical signs of BRD was classified as having BRD.
All the calves (100%, n=6 of 6) eventually developed BRD between days three and 31. […] The calf that did develop BRD did so on day 31.

[8] = tested on: BRD; test: BRD prevention at the feedlot, drug in the feed; assay type: in vivo, calves
Description: An initial study was performed to confirm BRD prevention at the feedlot using an anti-inflammatory composition comprising rupatadine, the oral inhibitor of PAFR. A total of 18 calves were evaluated with the treatment arm receiving a dosage rate of 0.3 mg/kg. Calves were provided the drug in the feed during the first three weeks after entering the feedlot which is within the high risk 6-week period following transfer of the animal. Calves were purchased from a location in Joplin, Mo. having an overall incidence of BRD at >40% which is higher than the standard incidence of about 10% in cattle.
A further study was performed to confirm BRD prevention at the feedlot using the anti-inflammatory composition comprising rupatadine. The same methodology of Example 5 was employed with the modification of the number of calves and the dosage rate. The dosage rate was increased to 0.6 mg/kg. The number of calves were increased to 24 in total. The results are consistent to the first trial, including: 41.7% of treated calves (n=5 of 12) developed BRD whereas 100% of untreated calves (n=12 of 12) developed BRD.
A further study was performed to confirm BRD prevention at the feedlot using the anti-inflammatory composition comprising rupatadine as outlined in Example 5 with the modification of the number of calves (20 total) and the dosage rate. The dosage rate increased to 1.2 mg/kg.

block of bovine PAFR function by antihistamines, PAF-mediated intracellular calcium accumulation (FIG. 12) [1] | block of the function of the H1 histamine receptor, intracellular calcium accumulation (FIG. 13) [2] | block of bovine PAFR function, PAF-mediated intracellular calcium accumulation (FIG. 11) [1] | Structure (SMILES) | further results
do not block | able to block | not blocked | CN(C)CCN(Cc1ccccc1)c1ccccn1 [tripelennamine] | 
 | fail to black | blocked | CCOC(=O)[C@H](CC(C)C)N(C)S(=O)(=O)c1ccc(Cn2c(C)nc3cnccc32)cc1 [lexipafant] | 
do not block |  |  | CC(CN1c2ccccc2Sc2ccccc21)N(C)C (stereo not shown) [promethazine] | 
do not block |  |  | COc1ccc(CN(CCN(C)C)c2ccccn2)cc1 [pyrilamine] | 

More lines, now with the values behind:

Structure (SMILES) | block of bovine PAFR function by antihistamines, PAF-mediated intracellular calcium accumulation (FIG. 12) [1] | block of the function of the H1 histamine receptor, intracellular calcium accumulation (FIG. 13) [2] | block of bovine PAFR function, PAF-mediated intracellular calcium accumulation (FIG. 11) [1] | further results
OCCOCCN1CCN(C(c2ccccc2)c2ccc(Cl)cc2)CC1 (stereo not shown) [hydroxyazine] | do not block |  |  | 
Cc1cncc(CN2CCC(=C3c4ccc(Cl)cc4CCc4cccnc43)CC2)c1 [rupatadine, 8-chloro-11-[1-[(5-methyl-3-pyridyl)methyl]-4-piperidyliden]-6,11-dihydro-5H-benzo[5,6]cyclohepta[1,2-b]pyridine] | able to block PAFR function; also recorded: blocks | able to block | blocked | lung disease identified by the veterinarians at necropsy [3]: 5-10%; blood levels of rupatadine (FIG. 9) [4]: reaches therapeutic concentrations more rapidly than in humans; PAFR expression over a five-week period [5]: greatest decrease in PAFR expression; stress hormone- and commensal oral bacteria-mediated second messenger accumulation [6]: blocks; stress hormone- and commensal oral bacteria-mediated second messenger accumulation ([6]; listed as PAFRi): indistinct from normal or non-expressing samples; high risk animals that did not develop BRD ([7]; weekly long-acting injections of 7 mg/kg): five out of six; animals that developed BRD ([7]; weekly subcutaneous injections of 7 mg/kg, five-week observation, n=6): 16.7%; day on which the calf developed BRD ([7]; weekly subcutaneous injections of 7 mg/kg, the one calf that developed BRD): 31 days; treated calves that developed BRD ([8]; 0.3 mg/kg in the feed, first three weeks after entering the feedlot, 8 treated calves, within 5 weeks): 50%; treated calves that developed BRD ([8]; 0.6 mg/kg in the feed, n=5 of 12): 41.7%; treated calves that developed BRD ([8]; 1.2 mg/kg in the feed, n=3 of 10): 33.3%
Cc1nnc2n1-c1sc(CCC(=O)N3CCOCC3)cc1C(c1ccccc1Cl)=NC2 [WEB2086] |  | fail to black | blocked | 
CN(C)CCOC(c1ccccc1)c1ccccc1 [diphenhydramine] | do not block |  |  | 
